Laboratory results: US20170333391A1, “METHOD FOR DELAYING THE ONSET OF PULMONARY FIBROSIS OR TREATING PULMONARY FIBROSIS” (EVERFRONT BIOTECH INC., priority 2016, published 2017)

What was measured:
[1] = test system: C57B/L6 mice injected with Bleomycin sulfate (inducer of pulmonary fibrosis); assay: Lung tissue slice observation (H&E stain) in Bleomycin sulfate mice; assay type: in vivo; conditions: compared to oil group
Protocol: 24 C57B/L6 mice (age: four weeks) were separated into four groups (6 mice in each group). Each group was respectively treated under the following conditions to conduct follow-up experiments: • (1) Control group (mice without pulmonary fibrosis; i.e., normal mice): 50 μl of PBS was administrated to each mouse by intratracheal injection, and then the mice were fed for 30 days; • (2) Oil group: 0.6 U/50 μl of Bleomycin sulfate (dissolved in PBS) was administrated to each mouse by intratracheal injection, and then 100 μl of olive oil was orally administrated to each mouse every day for 30 days; • (3) Low-dose group: 0.6 U/50 μl of Bleomycin sulfate (dissolved in PBS) was administrated to each mouse by intratracheal injection, and then compound (1) (10 mg/kg-body weight, prepared with olive oil to provide a final volume of 100 μl) was orally administrated to each mouse every day for 30 days; and • (4) High-dose group: 0.6 U/50 μl of Bleomycin sulfate (dissolved in PBS) was administrated to each mouse by intratracheal injection, and then compound (1) (50 mg/kg-body weight, prepared with olive oil to provide a final volume of 100 μl) was orally administrated to each mouse every day for 30 days.
After completing the measurement of the pulmonary function in Example 6, the mice were sacrificed. Pulmonary tissue samples were taken from the mice, and separated into two groups (each group comprised samples from the control group, oil group, low-dose group and high-dose group). One of the two groups was preserved at −20° C. for the follow-up experiment, and the other group was analyzed by hematoxylin-sosin stain (H&E stain).

TGF-β protein [2] = assay: TGF-β protein expression in transfected NHLF (pcDNA3.1 empty vector or pcDNA3.1-SOX2), western blotting (2-3); assay type: cell-based, human; conditions: TGF-β1 5 ng/ml 12 h
Protocol: (§1) The pcDNA3.1 empty vector and the pcDNA3.1-SOX2 plasmid (i.e., pcDNA3.1 vector containing SOX2 gene) were respectively transfected into Normal Human lung fibroblasts (NHLF) by the Fugene HD cell transfection reagent. The cells were screened to obtain NHLFs containing the pcDNA3.1 empty vector or the pcDNA3.1-SOX2 plasmid.
(§2) NHLFs containing the pcDNA3.1 empty vector were then seeded into 6 cm culture dishes at a density of 2×10^5 cells/dish, comprising a control group and three experimental groups (4 dishes in total). The cells were cultured until the next day, and then the mediums were removed. Each group was respectively treated under the following conditions to conduct follow-up experiments: • (1) Control group I: cells were cultured in a FGM-2 medium containing 1% serum for 36 hours; • (2) Group A: cells were cultured in a FGM-2 medium containing 1% serum and TGF-β1 (5 ng/ml) for 36 hours; • (3) Group B: cells were firstly cultured in a FGM-2 medium containing 1% serum and TGF-β1 (5 ng/ml) for 12 hours, and then compound (1) was added into the medium to provide a final concentration of 15 μg/ml; thereafter, the cells were cultured for another 24 hours; and • (4) Group C: cells were firstly cultured in a FGM-2 medium containing 1% serum and TGF-β1 (5 ng/ml) for 12 hours, and then compound (1) was added into the medium to provide a final concentration of 30 μg/ml; thereafter, the cells were cultured for another 24 hours.
(§3) In another aspect, NHLFs containing the pcDNA3.1-SOX2 plasmid were seeded into the 6 cm culture dishes at a density of 2×10^5 cells/dish, comprising a control group and three experimental groups (4 dishes in total). The cells were cultured until the next day, and then the mediums were removed. Each group was respectively treated under the following conditions to conduct follow-up experiments: • (1) Control group II: cells were cultured in a FGM-2 medium containing 1% serum for 36 hours; • (2) Group D: cells were cultured in a FGM-2 medium containing 1% serum and TGF-β1 (5 ng/ml) for 36 hours; • (3) Group E: cells were firstly cultured in a FGM-2 medium containing 1% serum and TGF-β1 (5 ng/ml) for 12 hours, and then the compound (1) was added into the medium to provide a final concentration of 15 μg/ml; thereafter, the cells were cultured for another 24 hours; and • (4) Group F: cells were firstly cultured in a FGM-2 medium containing 1% serum and TGF-β1 (5 ng/ml) for 12 hours, and then the compound (1) was added into the medium to provide a final concentration of 30 μg/ml; thereafter, the cells were cultured for another 24 hours.
(§4) Thereafter, the proteins in the cells of each group were extracted, and the expressions of Sox2 protein, TGF-β protein and type I collagen in the NHLF cells of each group were measured with western blotting. […]

TGF-β protein [3] = assay: TGF-β protein in mouse pulmonary tissue, western blotting; assay type: in vivo, mice; conditions: compared to oil group
Protocol: (§5) 24 C57B/L6 mice (age: four weeks) were separated into four groups (6 mice in each group). […]
(§6) The samples of mice pulmonary tissue provided by Example 7 and preserved at −20° C. were removed from storage, and then ground in liquid nitrogen. […] The expressions of TGF-β protein, smad3 protein and surfactant C in the samples of each group were measured with western blotting, wherein the actin served as an internal control.

Sox2 protein = Sox2 protein expression in transfected NHLF (pcDNA3.1 empty vector or pcDNA3.1-SOX2), western blotting (2-3); assay type: cell-based, human; conditions: TGF-β1 5 ng/ml 12 h
Protocol: as §1, §2, §3, §4

smad3 protein = smad3 protein in mouse pulmonary tissue, western blotting; assay type: in vivo, mice; conditions: compared to oil group
Protocol: as §5, §6

[4] = High-dose group, compound (1) 50 mg/kg orally daily 30 days
[5] = Low-dose group, compound (1) 10 mg/kg orally daily 30 days

With `CCCC=C1OC(=O)c2ccccc21` [compound (1)] the “alveolar wall tissue thickness (H&E stain)” value [1, 4] was “significantly thinner”, the “level of abnormal infiltration of pulmonary cells (H&E stain)” value [1, 4] was “significantly less” and the “alveolar wall tissue thickness (H&E stain)” value [1, 5] was “significantly thinner”. For the same compound, the “level of abnormal infiltration of pulmonary cells (H&E stain)” value [1, 5] was “significantly less”, the “Relative expression level (fold) TGF-β protein” value (TGF-β protein [2]; Group B: NHLF with pcDNA3.1 empty vector, then compound (1) 15 μg/ml 24 h, control group I = 1, TGF-β1-only group A = 0.84) was 0.89 fold and the “Relative expression level (fold) TGF-β protein” value (TGF-β protein [2]; Group C: NHLF with pcDNA3.1 empty vector, then compound (1) 30 μg/ml 24 h, control group I = 1, TGF-β1-only group A = 0.84) was 0.69 fold. The “Relative expression level (fold) TGF-β protein” value (TGF-β protein [2]; Group E: NHLF with pcDNA3.1-SOX2 plasmid, then compound (1) 15 μg/ml 24 h, control group II = 1, TGF-β1-only group D = 0.86) was 0.83 fold, the “Relative expression level (fold) TGF-β protein” value (TGF-β protein [2]; Group F: NHLF with pcDNA3.1-SOX2 plasmid, then compound (1) 30 μg/ml 24 h, control group II = 1, TGF-β1-only group D = 0.86) was 0.71 fold and the “expression level of TGF-β protein in pulmonary tissue” value (TGF-β protein [3]; [4]) was “significantly lower”. The “expression level of TGF-β protein in pulmonary tissue” value (TGF-β protein [3]; [5]) was “significantly lower”, the “Relative expression level (fold) Sox2 protein” value (Sox2 protein; Group B: NHLF with pcDNA3.1 empty vector, then compound (1) 15 μg/ml 24 h, control group I = 1, TGF-β1-only group A = 1.55) was 1.81 fold and the “Relative expression level (fold) Sox2 protein” value (Sox2 protein; Group C: NHLF with pcDNA3.1 empty vector, then compound (1) 30 μg/ml 24 h, control group I = 1, TGF-β1-only group A = 1.55) was 1.04 fold. The “Relative expression level (fold) Sox2 protein” value (Sox2 protein; Group E: NHLF with pcDNA3.1-SOX2 plasmid, then compound (1) 15 μg/ml 24 h, control group II = 1, TGF-β1-only group D = 0.88) was 1.03 fold, the “Relative expression level (fold) Sox2 protein” value (Sox2 protein; Group F: NHLF with pcDNA3.1-SOX2 plasmid, then compound (1) 30 μg/ml 24 h, control group II = 1, TGF-β1-only group D = 0.88) was 1.02 fold and the “expression level of smad3 protein in pulmonary tissue” value (smad3 protein; [4]) was “significantly lower”. For the same compound, the “expression level of smad3 protein in pulmonary tissue” value (smad3 protein; [5]) was “significantly lower”.
